The values below come from ChEMBL document CHEMBL1154699, “Synthesis of aryl phosphates based on pyrimidine and triazine scaffolds” (Eur J Med Chem, 2010).

Assay [1] concerns the target T1, Growth factor receptor-bound protein 2 (Homo sapiens, UniProt P62993). Kind of assay: Inhibition of Grb2 by ELISA.
Target sequence in this assay (P62993 whole entry, the tested form may be a part): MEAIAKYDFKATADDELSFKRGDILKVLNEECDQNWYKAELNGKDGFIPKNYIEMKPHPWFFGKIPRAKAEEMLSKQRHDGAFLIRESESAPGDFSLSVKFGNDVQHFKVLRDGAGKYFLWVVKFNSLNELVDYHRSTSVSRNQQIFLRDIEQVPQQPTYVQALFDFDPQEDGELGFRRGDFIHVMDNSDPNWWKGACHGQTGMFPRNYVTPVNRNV
For assay [2], the target named is T1, Growth factor receptor-bound protein 2. Kind of assay: Displacement of biotin-Ahx-PSpYVNVQN peptide from GST fused Grb2 SH2 domain by ELISA.

The source made the active and inactive calls. The calls are words filed in the database; no cut-off is given here.

With `Cc1ccc(OC(C)(C)C(=O)N[C@@H](Cc2ccc(OP(=O)(O)O)cc2)C(=O)N[C@@](C)(Cc2ccc(OP(=O)(O)O)cc2)C(=O)N[C@@H](CC(N)=O)C(N)=O)c(/N=N/c2ccccc2)c1`, the IC50 in assay [1] was 0.011 µM.
As to `NC(=O)CNc1nc(Nc2ccc(OP(=O)(O)O)cc2)nc(-c2cccc(Oc3ccc(OP(=O)(O)O)cc3)c2)n1`, the result in assay [2] was inactive.
Take `NC(=O)CNc1nc(Nc2ccc(OP(=O)(O)O)cc2)nc(-c2ccccc2Oc2ccc(OP(=O)(O)O)cc2)n1`: the half-inhibitory concentration (IC50) in assay [2] is 265 µM.
Regarding `Cc1cc(-c2cccc(Oc3ccc(OP(=O)(O)O)cc3)c2)nc(Nc2ccc(-c3nn[nH]n3)cc2)n1`, in assay [2], the result was inactive.
